Where two headings read alike, the source gives them in different places.
What was measured:
[1] = system: pentylenetetrazole-induced seizures; assay: Subcutaneous pentylenetetrazole (scPTZ) test, i.p. administration in mice; assay type: in vivo; conditions: Mus musculus, ip, doses of 30, 100 or 300 mg/kg
Experimental: (§1) Considering the aforementioned facts, the profile of anticonvulsant activity of final compounds 3–24 was established in the MES and scPTZ tests, after intraperitoneal (i.p.) injection in mice at doses of 30, 100 and 300 mg/kg. An observation was carried out at two different time intervals—0.5 and 4 h. Furthermore, in addition to the primary anticonvulsant screening, the acute neurological toxicity (NT) was determined in mice by the rotarod test.
(§2) Compounds 3–24 were pharmacologically preevaluated within the Antiepileptic Drug Development (ADD) Program in Epilepsy Branch, Neurological Disorders Program, National Institute of the Neurological and Communicative Disorders and Stroke (NIH/NINDS), Rockville, MD, USA, by using procedures described elsewhere (Krall et al., [1978]; Kupferberg, [1989]).
(§3) Phase I of the in vivo studies involved three tests: MES, scPTZ and rotarod test for NT. Male albino mice (CF#1 strain, weighing 18–25 g) and male albino rats (Sprague–Dawley) were used as experimental animals. The animals were housed in metabolic cages and allowed free access to food and water. The compounds were injected intraperitoneally to mice as a suspension in 0.5 % methylcellulose/water mixture at a dose level 30, 100 or 300 mg/kg with anticonvulsant activity and neurotoxicity assessment at 0.5 and 4 h after administration. Promising derivatives from phase I underwent phase VIa in which they were administrated orally into rats at a fixed dose of 30 mg/kg for both MES and the rotarod toxicity determination at five pretreatment times: 0.25, 0.5, 1, 2, 4 h. Groups of eight mice or four rats are employed.
The scPTZ test utilizes a dose of pentylenetetrazole (85 mg/kg in mice) that produces clonic seizures lasting for a period of at least 5 s in 97 % (CD97) of animals tested. PTZ is administered 0.5 and 4 h after injections of tested compounds, and observation is carried out for 30 min. In the control groups, the first episode of clonic convulsions is observed between 6 and 15 min of observation. The absence of clonic convulsions in the observed time period of […] is interpreted as the compound’s ability to protect against PTZ-induced seizures.

[2] = system: 6-Hz psychomotor seizures; assay: Psychomotor seizure test (6-Hz), i.p. in mice; assay type: in vivo; conditions: 100 mg/kg; for 6-Hz, number of mice protected/number of mice tested, 0.25 h / 6-Hz, number of mice protected/number of mice tested, 0.5 h / 6-Hz, number of mice protected/number of mice tested, 1 h / 6-Hz, number of mice protected/number of mice tested, 2 h / 6-Hz, number of mice protected/number of mice tested, 4 h: current 32 mA
Text: In the next step of pharmacological investigations, four compounds 12, 19, 20 and 24 were chosen for the evaluation of anticonvulsant activity in the psychomotor 6-Hz test (Table 4). The selection was made randomly as a part of the search of molecules providing anti-6-Hz protection among chemically diversified compounds pursued in the NIH/NINDS. It should be noticed that 6-Hz screen has been validated as a model of therapy-resistant epilepsy (Barton et al., [2001]).
The 6-Hz model is an alternative electroshock paradigm that uses low-frequency (6 Hz), long-duration (3 s) electrical stimulation. Corneal stimulation (0.2 ms duration monopolar rectangular pulses at 6-Hz for 3 s) was delivered by a constant-current device. During the stimulation, mice were manually restrained and released into the observation cage immediately after the current application. The seizures manifest in “stunned” posture associated with rearing, forelimb, automatic movements and clonus, twitching the vibrissae and Straub–tail. The duration of the seizure activity ranges from 60 to 120 s in untreated animals. At the end of the seizure, animals resume their normal exploratory behavior. The experimental end point is protection against the seizure. The animal is considered to be protected if it resumes its normal exploratory behavior within 10 s from the stimulation (Brown et al., [1953]).

[3] = system: maximal electroshock (MES) seizures; assay: Maximal electroshock (MES) test, i.p. administration in mice; assay type: in vivo; conditions: Mus musculus, ip, doses of 30, 100 or 300 mg/kg
Experimental: as §1, §2, §3
In the MES screen, an electrical stimulus of 0.2 s in duration (50 mA in mice and 150 mA in rats) is delivered via corneal electrodes primed with an electrolyte solution containing an anesthetic agent. The endpoint is the tonic extension of the hind limbs. In the control groups, the procedures cause immediate hind limb tonic extension. Mice not displaying hind limb tonic extension are considered to be protected from seizures.

[4] = system: maximal electroshock (MES) seizures; assay: MES test after oral administration in rats (screen and quantification); assay type: in vivo
Experimental: This screen discloses the time of onset, the approximate time of peak effect (TPE) and the duration of anticonvulsant activity or neurotoxicity.
The quantitative evaluation of the MES median effective dose (ED50) and toxic dose (TD50) was performed at previously estimated TPE—2 h.
as §3
In the MES screen, an electrical stimulus of 0.2 s in duration (50 mA in mice and 150 mA in rats) is delivered via corneal electrodes primed with an electrolyte solution containing an anesthetic agent. The endpoint is the tonic extension of the hind limbs. […] Mice not displaying hind limb tonic extension are considered to be protected from seizures.

in vivo = conditions: male, Sprague-Dawley, rat, po
mice (rotarod test) = assay: Neurotoxicity screening (NT), rotarod test, i.p. administration in mice; assay type: in vivo; conditions: for NT (rotarod), minimum dose neurotoxic in half or more animals tested, 0.5 h / dose showing neurotoxicity in the rotarod test (NT): male, CF#1, mouse, in vivo; for dose showing neurotoxicity in the rotarod test (NT): ip
Experimental: as §1, §3
The neurological toxicity test (NT) induced by a compound was detected in mice or rats using standardized rotarod test (Dunham and Miya, [1957]). Untreated control mice or rats, when placed on the rod, can maintained their equilibrium for a prolonged time period.

[5] = 0.5 h, read-out: scPTZ, minimum dose effective in half or more animals tested, 0.5 h
[6] = 4 h, read-out: scPTZ, minimum dose effective in half or more animals tested, 4 h
[7] = 0.5 h, read-out: MES, minimum dose effective in half or more animals tested, 0.5 h
[8] = 4 h, read-out: MES, minimum dose effective in half or more animals tested, 4 h

| SMILES | minimal effective dose [1, 5] [mg/kg] | minimal effective dose [1, 6] [mg/kg] | 6-Hz, number of mice protected/number of mice tested, 0.25 h [2] | 6-Hz, number of mice protected/number of mice tested, 0.5 h ([2]; 0.5 h) | 6-Hz, number of mice protected/number of mice tested, 1 h ([2]; 1 h) | 6-Hz, number of mice protected/number of mice tested, 2 h ([2]; 2 h) | 6-Hz, number of mice protected/number of mice tested, 4 h [2] | minimal effective dose [3, 7] [mg/kg] | minimal effective dose [3, 8] [mg/kg] | MES, number of rats protected/number of rats tested, 0.25 h ([4]; p.o., 30 mg/kg) | MES, number of rats protected/number of rats tested, 0.5 h ([4]; p.o., 30 mg/kg) | MES, number of rats protected/number of rats tested, 1 h ([4]; p.o., 30 mg/kg) | MES, number of rats protected/number of rats tested, 2 h ([4]; p.o., 30 mg/kg, 2 h) | MES, number of rats protected/number of rats tested, 4 h ([4]; p.o., 30 mg/kg) | NT (rotarod), minimum dose neurotoxic in half or more animals tested, 0.5 h (mice (rotarod test)) | dose showing neurotoxicity in the rotarod test (NT) (mice (rotarod test)) [mg/kg] | other results |
| --- | --- | --- | --- | --- | --- | --- | --- | --- | --- | --- | --- | --- | --- | --- | --- | --- | --- |
| Cl.O=C(CN1CCN(c2cccc(C(F)(F)F)c2)CC1)Nc1cccc(C(F)(F)F)c1 [Compound 20, N-[3-(Trifluoromethyl)phenyl]-2-[4-[3-(trifluoromethyl)phenyl]piperazin-1-yl]acetamide monohydrochloride] | > 300 | > 300 | 1/4 | 0/4 | 0/4 | 1/4 | 1/4 | > 300 | 100 | 0/4 | 1/4 | 0/4 | 2/4 | 0/4 |  |  | 6-Hz, % of animals protected, 0.25 h [2]: 25%; 6-Hz, % of animals protected, 2 h ([2]; 2 h): 25%; 6-Hz, % of animals protected, 4 h [2]: 25%; ED50 ([4]; Rattus norvegicus, po, at TPE, 95 % confidence limits in parentheses): 52.3 mg/kg; MES, % of animals protected, 2 h ([4]; p.o., 30 mg/kg, 2 h): 50%; PI (TD50/ED50), MES ([4]; p.o., protective index for MES): >9.56 (MES); TD50 at 2 h (in vivo): > 500 mg/kg |
| Cl.O=C(CN1CCOCC1)Nc1cccc(C(F)(F)F)c1 [Compound 24, 2-Morpholino-N-[3-(trifluoromethyl)phenyl]acetamide monohydrochloride] | > 300 | > 300 | 4/4 | 2/4 | 3/4 | 0/4 | 0/4 | 100 | > 300 |  |  |  |  |  | 100 mg/kg | 100 | 6-Hz, % of animals protected, 0.25 h [2]: 100%; 6-Hz, % of animals protected, 0.5 h ([2]; 0.5 h): 50%; 6-Hz, % of animals protected, 1 h ([2]; 1 h): 75% |
| Cl.O=C(CN1CCN(c2ccc(F)cc2)CC1)Nc1cccc(C(F)(F)F)c1 [Compound 19, 2-[4-(4-Fluorophenyl)piperazin-1-yl]-N-[3-(trifluoromethyl)phenyl]acetamide monohydrochloride] | > 300 | > 300 | 0/4 | 0/4 | 0/4 | 0/4 | 1/4 | 300 | 100 |  |  |  |  |  | 300 mg/kg | 300 | 6-Hz, % of animals protected, 4 h [2]: 25% |
| O=C(CN1CCN(Cc2ccccc2)CC1)Nc1cccc(C(F)(F)F)c1 [Compound 22, 2-(4-Benzylpiperazin-1-yl)-N-[3-(trifluoromethyl)phenyl]acetamide] | > 300 | > 300 |  |  |  |  |  | 300 | > 300 | 1/4 | 1/4 | 1/4 | 1/4 | 1/4 | 300^33 mg/kg |  | response comment (adverse sign observed) (mice (rotarod test); mice, i.p., 300 mg/kg): tremors |
| Cl.Cl.O=C(CN1CCN(Cc2ccccc2)CC1)Nc1cccc(Cl)c1 [Compound 11, 2-(4-Benzylpiperazin-1-yl)-N-(3-chlorophenyl)acetamide dihydrochloride] | > 300 | > 300 |  |  |  |  |  | > 300 | > 300 |  |  |  |  |  | 300 mg/kg | 300 |  |
| Cl.O=C(CN1CCN(c2ncccn2)CC1)Nc1cccc(C(F)(F)F)c1 [Compound 21, 2-(4-Pyrimidin-2-ylpiperazin-1-yl)-N-[3-(trifluoromethyl)phenyl]acetamide monohydrochloride] | > 300 | > 300 |  |  |  |  |  | > 300 | > 300 |  |  |  |  |  | 300 mg/kg |  |  |
| Cl.O=C(CN1CCOCC1)Nc1cccc(Cl)c1 [Compound 13, N-(3-chlorophenyl)-2-morpholino-acetamide monohydrochloride] | > 300 | > 300 |  |  |  |  |  | 100 | 300 | 0/4 | 1/4 | 0/4 | 0/4 | 0/4 | 300 mg/kg | 300 |  |

From article PMC4491109, “Synthesis and anticonvulsant activity of new N-phenyl-2-(4-phenylpiperazin-1-yl)acetamide derivatives” (Medicinal Chemistry Research, 2015)
